Measurements: patent US20250333397A1 (REMIX THERAPEUTICS INC., priority 2021, published 2025)
Where two headings read alike, the source gives them in different places.

Experiments:
Assay type in all cases: cell-based, human
HTT mRNA = test: RT-qPCR splicing assay, HTT canonical (CJ) and alternative (AJ) junction mRNA; conditions: Homo sapiens; for AC50: read-out: HTT AJ (AC50, increase in AJ mRNA)
How it was run: (§1)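 Junction-specific RT-qPCR read the canonical exon-exon junction and the compound-induced alternative-exon junction, normalized to GAPDH, GUSB or PPIA and then to DMSO (2^(-ΔΔCt)). Input was lysate from A673 or K562 cells exposed for 24 h to compound up to 10 uM.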

MYB mRNA = test: RT-qPCR splicing assay, MYB canonical (CJ) and alternative (AJ) junction mRNA; conditions: Homo sapiens; for AC50: read-out: MYB AJ (AC50, increase in AJ mRNA)
How it was run: as §1

SMN2 mRNA = test: RT-qPCR splicing assay panel, SMN2 canonical junction (CJ) mRNA; conditions: Homo sapiens, canonical junction (CJ) mRNA, RT-qPCR panel, Table 4A; read-out: SMN2, decrease in CJ mRNA levels, IC50
How it was run: as §1

Target C mRNA = test: RT-qPCR splicing assay panel, Target C canonical junction (CJ) mRNA; conditions: Homo sapiens, canonical junction (CJ) mRNA, RT-qPCR panel, Table 4A; read-out: Target C, decrease in CJ mRNA levels, IC50
How it was run: as §1

[1] = 24 h, Table 3A, A673 or K562 cells, 24 h treatment
[2] = 24 h, Table 3A, A673 or K562 cells, 24 h treatment, read-out: HTT CJ (IC50, decrease in CJ mRNA)
[3] = canonical junction (CJ) mRNA, RT-qPCR panel, Table 4A, read-out: HTT, decrease in CJ mRNA levels, IC50
[4] = 24 h, Table 3A, A673 or K562 cells, 24 h treatment, read-out: MYB CJ (IC50, decrease in CJ mRNA)
[5] = canonical junction (CJ) mRNA, RT-qPCR panel, Table 4A, read-out: MYB, decrease in CJ mRNA levels, IC50

Oc1cc(-c2cnnc(C3CC3)c2)ccc1-c1ccc(N2CC[C@@H](NC3CCC3)C2)nn1 [Compound 279, 2-{6-[(3R)-3-(cyclobutylamino)pyrrolidin-1-yl]pyridazin-3-yl}-5-(6-cyclopropylpyridazin-4-yl)phenol]
> 10000 nM: AC50 (HTT mRNA; [1]) | AC50 (MYB mRNA; [1]) | IC50 (MYB mRNA; [4]) | IC50 (MYB mRNA; [5]) | IC50 (Target C mRNA)
1000 to 10000 nM: IC50 (HTT mRNA; [2]) | IC50 (HTT mRNA; [3])
100 to 1000 nM: IC50 (SMN2 mRNA)

Oc1cc(-c2cnnc(C3CC3)c2)ccc1-c1ccc(N2CC[C@H](NC3CCC3)C2)nn1 [Compound 280]
100 to 1000 nM: IC50 (SMN2 mRNA)
> 10000 nM: AC50 (MYB mRNA; [1]) | IC50 (Target C mRNA)
1000 to 10000 nM: AC50 (HTT mRNA; [1]) | IC50 (HTT mRNA; [2]) | IC50 (HTT mRNA; [3]) | IC50 (MYB mRNA; [4]) | IC50 (MYB mRNA; [5])

Cc1ccc(-c2ccc(-c3ccc(N4CC[C@H](NC5CCC5)C4)nn3)c(O)c2)cn1 [Compound 281]
1000 to 10000 nM: AC50 (MYB mRNA; [1]) | IC50 (MYB mRNA; [4]) | IC50 (MYB mRNA; [5]) | IC50 (Target C mRNA)
100 to 1000 nM: AC50 (HTT mRNA; [1]) | IC50 (HTT mRNA; [2]) | IC50 (HTT mRNA; [3])
< 100 nM: IC50 (SMN2 mRNA)

COc1cc(-c2ccc(-c3ccc(N4CC[C@H](NC(C)(C)C)C4)nn3)c(O)c2)ncn1 [Compound 283, 2-{6-[(3S)-3-(tert-butylamino)pyrrolidin-1-yl]pyridazin-3-yl}-5-(6-methoxypyrimidin-4-yl)phenol]
< 100 nM: AC50 (HTT mRNA; [1]) | IC50 (HTT mRNA; [2]) | IC50 (HTT mRNA; [3]) | IC50 (SMN2 mRNA) | IC50 (Target C mRNA)
100 to 1000 nM: AC50 (MYB mRNA; [1]) | IC50 (MYB mRNA; [4]) | IC50 (MYB mRNA; [5])

COc1cc(-c2cc(O)c(-c3ccc(N4CCC(C)(NC(C)C)C4)nn3)cc2F)cnn1 (stereo not drawn) [Compound 284]
< 100 nM: AC50 (HTT mRNA; [1]) | IC50 (HTT mRNA; [2]) | IC50 (HTT mRNA; [3]) | IC50 (SMN2 mRNA)
100 to 1000 nM: AC50 (MYB mRNA; [1]) | IC50 (MYB mRNA; [4]) | IC50 (MYB mRNA; [5]) | IC50 (Target C mRNA)

COc1cc(-c2ccc(-c3ccc(N4CCC(C)(NC(C)C)C4)nn3)c(O)c2)cnn1 (stereo not drawn) [Compound 285, 2-{6-[3-(isopropylamino)-3-methylpyrrolidin-1-yl]pyridazin-3-yl}-5-(6-methoxypyridazin-4-yl)phenol]
100 to 1000 nM: AC50 (MYB mRNA; [1]) | IC50 (MYB mRNA; [4]) | IC50 (MYB mRNA; [5])
< 100 nM: AC50 (HTT mRNA; [1]) | IC50 (HTT mRNA; [2]) | IC50 (HTT mRNA; [3]) | IC50 (SMN2 mRNA) | IC50 (Target C mRNA)

COc1cc(-c2cc(O)c(-c3ccc(N4CC[C@@H](NC5(C)CCC5)C4)nn3)cc2F)cnn1 [Compound 286]
1000 to 10000 nM: AC50 (MYB mRNA; [1]) | IC50 (MYB mRNA; [4]) | IC50 (MYB mRNA; [5])
< 100 nM: IC50 (HTT mRNA; [2]) | IC50 (HTT mRNA; [3]) | IC50 (SMN2 mRNA)
100 to 1000 nM: AC50 (HTT mRNA; [1]) | IC50 (Target C mRNA)

COc1cc(-c2ccc(-c3ccc(N4CC[C@@H](NC5(C)CCC5)C4)nn3)c(O)c2)cnn1 [Compound 287, (R)-5-(6-methoxypyridazin-4-yl)-2-(6-(3-((1-methylcyclobutyl)amino)pyrrolidin-1-yl)pyridazin-3-yl)phenol]
< 100 nM: AC50 (HTT mRNA; [1]) | IC50 (HTT mRNA; [2]) | IC50 (HTT mRNA; [3]) | AC50 (MYB mRNA; [1]) | IC50 (MYB mRNA; [4]) | IC50 (MYB mRNA; [5]) | IC50 (SMN2 mRNA) | IC50 (Target C mRNA)

COc1cc(-c2ccc(-c3ccc(N4CC[C@@H](NCC5CC5)C4)nn3)c(O)c2)cnn1 [Compound 288]
< 100 nM: IC50 (HTT mRNA; [2]) | IC50 (HTT mRNA; [3]) | IC50 (SMN2 mRNA)
100 to 1000 nM: AC50 (HTT mRNA; [1]) | AC50 (MYB mRNA; [1]) | IC50 (MYB mRNA; [4]) | IC50 (MYB mRNA; [5]) | IC50 (Target C mRNA)

COc1cc(-c2ccc(-c3ccc(N4CC[C@H](NC5(C)CCC5)C4)nn3)c(O)c2)cnn1 [Compound 289, (S)-5-(6-methoxypyridazin-4-yl)-2-(6-(3-((1-methylcyclobutyl)amino)pyrrolidin-1-yl)pyridazin-3-yl)phenol]
100 to 1000 nM: AC50 (HTT mRNA; [1]) | AC50 (MYB mRNA; [1]) | IC50 (MYB mRNA; [4]) | IC50 (MYB mRNA; [5])
< 100 nM: IC50 (HTT mRNA; [2]) | IC50 (HTT mRNA; [3]) | IC50 (SMN2 mRNA) | IC50 (Target C mRNA)

CCN(C1CCC1)[C@@H]1CCN(c2ccc(-c3ccc(-c4cnnc(OC)c4)cc3O)nn2)C1 [Compound 290, 2-{6-[(3R)-3-[cyclobutyl(ethyl)amino]pyrrolidin-1-yl]pyridazin-3-yl}-5-(6-methoxypyridazin-4-yl)phenol]
100 to 1000 nM: AC50 (HTT mRNA; [1]) | IC50 (HTT mRNA; [2]) | IC50 (HTT mRNA; [3]) | AC50 (MYB mRNA; [1]) | IC50 (MYB mRNA; [4]) | IC50 (MYB mRNA; [5]) | IC50 (Target C mRNA)
< 100 nM: IC50 (SMN2 mRNA)

Cc1cc(-c2ccc(-c3ccc(N4CC[C@H](NC5CCC5)C4)nn3)c(O)c2)cnn1 [Compound 291, 2-{6-[(3S)-3-(cyclobutylamino)pyrrolidin-1-yl]pyridazin-3-yl}-5-(6-methylpyridazin-4-yl)phenol]
1000 to 10000 nM: IC50 (HTT mRNA; [2]) | IC50 (HTT mRNA; [3]) | IC50 (SMN2 mRNA)
> 10000 nM: AC50 (HTT mRNA; [1]) | AC50 (MYB mRNA; [1]) | IC50 (MYB mRNA; [4]) | IC50 (MYB mRNA; [5]) | IC50 (Target C mRNA)

Cc1cc(-c2ccc(-c3ccc(N4CC[C@@H](NC5CCC5)C4)nn3)c(O)c2)cnn1 [Compound 292, 2-{6-[(3R)-3-(cyclobutylamino)pyrrolidin-1-yl]pyridazin-3-yl}-5-(6-methylpyridazin-4-yl)phenol]
> 10000 nM: AC50 (HTT mRNA; [1]) | IC50 (HTT mRNA; [2]) | IC50 (HTT mRNA; [3]) | AC50 (MYB mRNA; [1]) | IC50 (MYB mRNA; [4]) | IC50 (MYB mRNA; [5]) | IC50 (Target C mRNA)
1000 to 10000 nM: IC50 (SMN2 mRNA)

Cc1ccc(-c2ccc(-c3ccc(N4CC[C@@H](NC5CCC5)C4)nn3)c(O)c2)cn1 [Compound 293, 2-{6-[(3R)-3-(cyclobutylamino)pyrrolidin-1-yl]pyridazin-3-yl}-5-(6-methylpyridin-3-yl)phenol]
< 100 nM: IC50 (SMN2 mRNA)
100 to 1000 nM: AC50 (HTT mRNA; [1]) | IC50 (HTT mRNA; [2]) | IC50 (HTT mRNA; [3]) | AC50 (MYB mRNA; [1])
1000 to 10000 nM: IC50 (MYB mRNA; [4]) | IC50 (MYB mRNA; [5]) | IC50 (Target C mRNA)

CN(C1CCC1)[C@H]1CCN(c2ccc(-c3ccc(-c4cn[nH]c4)cc3O)nn2)C1 [Compound 294, 2-{6-[(3S)-3-[cyclobutyl(methyl)amino]pyrrolidin-1-yl]pyridazin-3-yl}-5-(1H-pyrazol-4-yl)phenol]
< 100 nM: IC50 (HTT mRNA; [2]) | IC50 (HTT mRNA; [3]) | IC50 (SMN2 mRNA)
100 to 1000 nM: AC50 (HTT mRNA; [1]) | AC50 (MYB mRNA; [1]) | IC50 (MYB mRNA; [4]) | IC50 (MYB mRNA; [5]) | IC50 (Target C mRNA)

CN(C1CCC1)[C@H]1CCN(c2ccc(-c3cc(F)c(-c4cn[nH]c4)cc3O)nn2)C1 [Compound 295]
100 to 1000 nM: AC50 (MYB mRNA; [1]) | IC50 (MYB mRNA; [4]) | IC50 (MYB mRNA; [5])
< 100 nM: AC50 (HTT mRNA; [1]) | IC50 (HTT mRNA; [2]) | IC50 (HTT mRNA; [3]) | IC50 (SMN2 mRNA) | IC50 (Target C mRNA)

CN(C1CCC1)[C@@H]1CCN(c2ccc(-c3ccc(-c4cn[nH]c4)cc3O)nn2)C1 [Compound 296, 2-{6-[(3R)-3-[cyclobutyl(methyl)amino]pyrrolidin-1-yl]pyridazin-3-yl}-5-(1H-pyrazol-4-yl)phenol]
< 100 nM: IC50 (SMN2 mRNA)
100 to 1000 nM: AC50 (HTT mRNA; [1]) | IC50 (HTT mRNA; [2]) | IC50 (HTT mRNA; [3]) | AC50 (MYB mRNA; [1]) | IC50 (MYB mRNA; [4]) | IC50 (MYB mRNA; [5]) | IC50 (Target C mRNA)

Cn1ncc(-c2ccc(-c3ccc(N4CC[C@@H](NC(C)(C)C)C4)nn3)c(O)c2)cc1=O [Compound 297, 5-(4-{6-[(3R)-3-(tert-butylamino)pyrrolidin-1-yl]pyridazin-3-yl}-3-hydroxyphenyl)-2-methylpyridazin-3-one]
< 100 nM: AC50 (HTT mRNA; [1]) | IC50 (HTT mRNA; [2]) | IC50 (HTT mRNA; [3]) | AC50 (MYB mRNA; [1]) | IC50 (MYB mRNA; [4]) | IC50 (MYB mRNA; [5]) | IC50 (SMN2 mRNA) | IC50 (Target C mRNA)
